Earlier results as cited in US20240374627A1, “A PHARMACEUTICAL COMPOSITION COMPRISING COMBINATION OF SITAGLIPTIN AND EMPAGLIFLOZIN” (UNISON PHARMACEUTICALS PVT. LTD., priority 2021, published 2024).
Read-outs that look alike come from different tables or passages of the source.

Legend:
[1] = healthy volunteers; Brand et al., Adv Ther 2012

Row | SMILES | effect of coadministration on the pharmacokinetics of either drug [1] | solubility (acetonitrile) | solubility (aqueous media between pH 1-7.4, European assessment report of Jardiance) | solubility (ethanol) | solubility (methanol) | solubility (toluene) | solubility (water (pH 1-7.4)) | solubility (N,N-dimethyl formamide) | solubility (acetone) | solubility (isopropanol) | solubility (isopropyl acetate) | solubility (water)
1 | OC[C@H]1O[C@@H](c2ccc(Cl)c(Cc3ccc(O[C@H]4CCOC4)cc3)c2)[C@H](O)[C@@H](O)[C@@H]1O [Empagliflozin, (1S)-1,5-anhydro-1-(4-chloro-3-{4-[(3S)-tetrahydrofuran-3-yloxy]benzyl}phenyl)-D-glucitol] | without specifying any clinically relevant effect | slightly soluble | slightly soluble | slightly soluble | sparingly soluble | practically insoluble | very slightly soluble |  |  |  |  | 
2 | N[C@@H](CC(=O)N1CCn2c(nnc2C(F)(F)F)C1)Cc1cc(F)c(F)cc1F [Sitagliptin, 7-[(3R)-3-amino-1-oxo-4-(2,4,5-trifluorophenyl)butyl]-5,6,7,8-tetrahydro-3-(trifluoromethyl)-1,2,4-triazolo[4,3-a]pyrazine phosphate (1:1) monohydrate] | without specifying any clinically relevant effect | soluble |  | soluble | slightly soluble |  |  | soluble | soluble | insoluble | insoluble | soluble
